Data as given in patent US11976280B2, “SMAC/Diablo inhibitors useful for treating cancer” (THE NATIONAL INSTITUTE FOR BIOTECHNOLOGY IN THE NEGEV LTD., priority 2017, dated 2024).
Non-standard residues stand in square brackets, D forms with d. No end group written: not given here. Dmt = Cc1cc(O)cc(C)c1C[C@H](N)C(=O)O; Orn = NCCC[C@H](N)C(=O)O; d = 2'-deoxy (DNA); m = 2'-O-methyl; r = 2'-OH (RNA)

Assays:
[1] = tested on: A549 cells; assay: SRB cell growth of A549 cells treated with peptide conjugates (Table 8); type: cell-based, human; details: 48 h in serum (10%) medium or 24 h serum-free, mean±SD (n=3)
Experimental: A549 cells were seeded in 96-well plate (5000 cells/well). After 24 h cells were incubated with each of the examined peptides at a concentration of 5, 10, or 30 μM for 48 h in a serum (10%) containing medium or for 24 h in a serum-free medium. Then, cells were washed with PBS, fixed with 10% trichloroacetic acid, and analyzed for cell growth using the SRB method described herein above. Cell growth with no addition of a peptide was taken as a control (100% cell growth). Table 8 presents the cell growth in the presence of the peptide as % of control. Results are the mean±SD (n=3).

[2] = target: T1, SMAC/Diablo (Homo sapiens, UniProt Q9NR28); assay: Peptide array after pre-incubation of SMAC/Diablo with free peptide; type: binding; details: for SMAC/Diablo interaction with the corresponding array-bound peptide: SMAC 0.8 μM pre-incubated with free peptide 2.4 μM
T1 sequence (Q9NR28 22-239): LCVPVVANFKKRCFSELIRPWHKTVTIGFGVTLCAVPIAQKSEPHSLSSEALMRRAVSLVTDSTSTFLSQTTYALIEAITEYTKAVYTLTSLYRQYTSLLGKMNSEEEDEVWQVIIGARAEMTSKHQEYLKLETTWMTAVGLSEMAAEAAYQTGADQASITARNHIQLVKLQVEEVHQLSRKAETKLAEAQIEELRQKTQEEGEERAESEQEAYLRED
Experimental: The glass-bound peptide array described hereinabove was used. SMAC/Diablo (0.8 μM) was incubated with each of the peptides—2C18 (2.4 μM) and 1G12 (2.4 μM) for 2 hr at 24° C. and then incubated with the peptide array for 4 h at 4° C. Then the slides were washed and SMAC/Diablo antibodies (1:2000) were added, followed by incubation with HRP-conjugated anti-mouse IgG after which chemiluminescent spots were detected. Corresponding glass-bound peptide array incubated overnight with 0.8 μM free SMAC/Diablo, blotted with the same concentration of SMAC/Diablo antibodies followed by incubation with HRP-conjugated anti-mouse IgG served as a control. […] This is indicated by the decreased intensity or disappearance of chemiluminescence in the peptide spot position compared to the control (FIG. 16 and FIG. 17, respectively). Moreover, pre-incubation of SMAC/Diablo with peptide 2C18 decreased SMAC/Diablo interaction with the array-bound peptides 1M17 and 1N23 derived from Nuclear receptor subfamily 4 group A member 1 Protein (NR4A1) and peptide 1K20 derived from TNF receptor associated factor 2 Protein (TRAF2) (FIG. 16B, eliminated spots are circled).

[3] = tested on: A549 cells; assay: SRB cell growth assay, si-hSMAC B-D and 2′-O-Me modified siRNAs; type: cell-based, human; details: 30 and 50 nM
Experimental: The siRNAs were synthesized by Genepharma (Suzhou, China). Cells were seeded (150,000 cells/well) on 6-well culture dishes to 40-60% confluence and transfected with 10-100 nM si-NT or si-hSMAC/Diablo using the JetPRIME transfection reagent (Illkirch, France), according to the manufacturers' instructions.
Twenty-four hours post-transfection with si-NT or si-hSMAC, cells (10,000/well) were counted and seeded in 96-well plates. After additional 48, 72 or 96 hours, the cells were washed with PBS, fixed with 10% trichloroacetic acid, and stained with SRB. SRB was extracted from the cells using 100 mM Tris base and absorbance at 510 nm was determined using an Infinite M1000 plate reader (Tecan, Männedorf, Switzerland).
si-hSMAC-A and si-hSMAC-B were modified by 2′-O methylation (2′-O Me) to form si-hSMAC-A1, si-hSMAC-A2 si-hSMAC-A3 si-hSMAC-A4 si-hSMAC-B1 si-hSMAC-B2 si-hSMAC-B3 and si-hSMAC-B4 described hereinabove. The effect of these modified forms on SMAC/Diablo expression and on cell proliferation was examined using 30 and 50 nM of each inhibitory RNA molecule in the lung cancer line A549.

[4] = pre-incubation with free peptide 2.4 μM

Row | Substance | Cell growth, % of control ([1]; peptide 5 μM) | Cell growth, % of control ([1]; peptide 10 μM) | Cell growth, % of control ([1]; peptide 30 μM) | reducing cell proliferation, ranking among modified molecules [3] | other results
1 | 1G12-nuCPP: peptide conjugate targeted to nucleus, SEQ ID NO:70 (LIRKNRMALFQQLTCVLPILDNLLKR[dR]RK) | 109 ± 0.013 % of control | 76 ± 0.024 % of control | 39 ± 0.013 % of control |  | 
2 | 1H13-mtCPP-NH2: peptide conjugate targeted to mitochondria, SEQ ID NO:73 (SGCAFLSVKKQFEELTLGEFLKLD[dR][Dmt][Orn]F-NH2) | 85 ± 0.022 % of control | 60 ± 0.018 % of control | 49 ± 0.014 % of control |  | 
3 | 1H13-nuCPP: peptide conjugate targeted to nucleus, SEQ ID NO:69 (SGCAFLSVKKQFEELTLGEFLKLDR[dR]RK) | 92 ± 0.018 % of control | 57 ± 0.013 % of control | 30 ± 0.009 % of control |  | 
4 | ANT-2C18 (MRQIKIWFQNRRMKWKVRFITKIWHPNISSVTGAICLDILK) | 127 ± 0.006 % of control | 145 ± 0.0162 % of control | 97 ± 0.011 % of control |  | 
5 | LIRKNRMALFQQLTCVLPILDNLLK [1G12] |  |  |  |  | SMAC/Diablo interaction with the corresponding array-bound peptide [2]: significantly decreased or even prevented; SMAC/Diablo interaction with array-bound 1G12, 1G13, 1H13 (BIRC5) and 2D9 (MAML2) [2, 4]: significantly reduced
6 | TF-1G12: peptide conjugate targeted to cytosol, SEQ ID NO:76 (HAIYPRLIRKNRMALFQQLTCVLPILDNLLK; not fully specified) | 99 ± 0.004 % of control | 98 ± 0.005 % of control | 99 ± 0.005 % of control |  | 
7 | VRFITKIWHPNISSVTGAICLDILK [2C18] |  |  |  |  | SMAC/Diablo interaction with the corresponding array-bound peptide [2]: significantly decreased or even prevented; SMAC/Diablo interaction with array-bound peptides 1M17, 1N23 (NR4A1) and 1K20 (TRAF2) [2, 4]: decreased
8 | mtCPP-2C18: peptide conjugate targeted to mitochondria, SEQ ID NO:74 ([dR][Dmt][Orn]FVRFITKIWHPNISSVTGAICLDILK) | 89 ± 0.005 % of control | 74 ± 0.004 % of control | 59 ± 0.004 % of control |  | 
9 | nuCPP-1G12: peptide conjugate targeted to nucleus, SEQ ID NO:71 (R[dR]RKLIRKNRMALFQQLTCVLPILDNLLK) | 96 ± 0.012 % of control | 72 ± 0.01 % of control | 66 ± 0.009 % of control |  | 
10 | si-hSMAC-A1: si-hSMAC-A with 2′-O-Me at sense positions 5, 10, 16, 21 (SEQ ID NO:28) and antisense 6, 12, 19 (SEQ ID NO:29) (sense AAGCGGUGUUUCUCAGAAUUGTT; antisense AACAAUUCUGAGAAACCCGCTT; sense: sugars from the 5' end rrrrmrrrrmrrrrrmrrrrmdd, backbone not given here; antisense: sugars from the 5' end rrrrrmrrrrrmrrrrrrmrdd, backbone not given here) |  |  |  | most active in reducing cell proliferation | 
11 | si-hSMAC-A4: si-hSMAC-A with 2′-O-Me at sense positions 3, 6, 11, 21 (SEQ ID NO:34) and antisense 6, 19 (SEQ ID NO:35) (sense AAGCGGUGUUUCUCAGAAUUGTT; antisense AACAAUUCUGAGAAACCCGCTT; sense: sugars from the 5' end rrmrrmrrrrmrrrrrrrrrmdd, backbone not given here; antisense: sugars from the 5' end rrrrrmrrrrrrrrrrrrmrdd, backbone not given here) |  |  |  | most active in reducing cell proliferation | 
12 | si-hSMAC-B2: si-hSMAC-B with 2′-O-Me at sense positions 4, 9, 13, 17 (SEQ ID NO:38) and antisense 6, 12, 18 (SEQ ID NO:39) (sense GCAGAUCAGGCCUCUAUAATT; antisense UUAUAGAGGCCUGAUCUGCTT; sense: sugars from the 5' end rrrmrrrrmrrrmrrrmrrdd, backbone not given here; antisense: sugars from the 5' end rrrrrmrrrrrmrrrrrmrdd, backbone not given here) |  |  |  | most active | 
13 | si-hSMAC-B3: si-hSMAC-B with 2′-O-Me at sense positions 6, 10, 15 (SEQ ID NO:40) and antisense 2, 9, 17 (SEQ ID NO:41) (sense GCAGAUCAGGCCUCUAUAATT; antisense UUAUAGAGGCCUGAUCUGCTT; sense: sugars from the 5' end rrrrrmrrrmrrrrmrrrrdd, backbone not given here; antisense: sugars from the 5' end rmrrrrrrmrrrrrrrmrrdd, backbone not given here) |  |  |  | most active | 
